{"source": "paper PMC8983499", "about": "(Cancer Research, 2022)", "type_in_all_cases": "in vivo", "key": {"Nephrotoxicity study": {"experiment": "Nephrotoxicity study", "conditions": "BALB/cJ mice, intravenous, 3 days after drug administration, ELISA, n = 3/group"}, "Toxicity profile": {"experiment": "Toxicity profile", "conditions": "healthy BALB/cJ mice, intravenous weekly for 3 weeks, DM1 and DM1–Bdd 0.75 mg/kg of drug content, CIS 10 mg/kg"}, "[1]": {"experiment": "Fluorescence imaging of Cy-peptide analogues", "conditions": "SHO mice, tail-vein injection 0.5 nmol, images 1 and 4 hours; in words"}}, "data": [{"compound": "COc1cc2cc(c1Cl)N(C)C(=O)C[C@H](OC(=O)[C@H](C)N(C)C(=O)CCS)[C@]1(C)O[C@H]1[C@H](C)[C@@H]1C[C@@](O)(NC(=O)O1)[C@H](OC)/C=C/C=C(\\C)C2", "note": "[DM1, N2'-deacetyl-N2'-(3-mercapto-1-oxopropyl)-maytansine]", "values": [{"measurement": "KIM-1 and/or NGAL in urine", "setting": "Nephrotoxicity study", "value": "continued induction"}, {"measurement": "serum biochemical analysis for liver injury and renal function", "setting": "Toxicity profile", "value": "induced hepatic and renal toxicity"}, {"measurement": "hematology (blood cell counts and morphologic features)", "setting": "Toxicity profile; n = 4/group", "value": "reticulocytosis without apparent anemia"}]}, {"compound": "Nc1ccn([C@@H]2O[C@H](CO)[C@@H](O)C2(F)F)c(=O)n1", "note": "[GEM, gemcitabine]", "values": [{"measurement": "KIM-1 and/or NGAL in urine", "setting": "Nephrotoxicity study", "value": "continued induction"}]}, {"compound": "CO[C@@]12[C@H](COC(N)=O)C3=C(C(=O)C(C)=C(N)C3=O)N1C[C@@H]1N[C@@H]12", "note": "[MIT, mitomycin]", "values": [{"measurement": "KIM-1 and/or NGAL in urine", "setting": "Nephrotoxicity study", "value": "continued induction"}]}, {"compound": "Cyanine5.5 [free Cy]", "values": [{"measurement": "elimination and organ uptake by fluorescence imaging", "setting": "[1]", "value": "mainly taken up by liver and/or other organs"}]}]}
